According to patent US9464069B2, “1,2-disubstituted cyclobutyl compounds” (LABORATORIOS DEL DR. ESTEVE S.A., priority 2013, dated 2016):
Where a name gives a salt, the structure may show the parent alone.

Target: T1, human sigma 1 receptor (Homo sapiens, UniProt Q99720)
T1 construct: expressed in transfected cells; host or cells: HEK-293
Experiment: Human Sigma 1 Receptor Radioligand Assay
Type: binding
Conditions: [3H](+)-pentazocine radioligand 5 nM; transfected HEK-293 membranes; 37° C., 120 minutes
Procedure: Human Sigma 1 Receptor Radioligand Assay
To investigate binding properties of sigma 1 receptor ligands to human sigma 1 receptor, transfected HEK-293 membranes and [^3H](+)-pentazocine (Perkin Elmer, NET-1056), as the radioligand, were used. The assay was carried out with 7 μg of membrane suspension, 5 nM of [^3H](+)-pentazocine in either absence or presence of either buffer or 10 μM Haloperidol for total and non-specific binding, respectively. Binding buffer contained Tris-HCl 50 mM at pH 8. Plates were incubated at 37° C. for 120 minutes. After the incubation period, the reaction mix was then transferred to MultiScreen HTS, FC plates (Millipore), filtered and plates were washed 3 times with ice-cold 10 mM Tris-HCL (pH 7.4). Filters were dried and counted at approximately 40% efficiency in a MicroBeta scintillation counter (Perkin-Elmer) using EcoScint liquid scintillation cocktail.

T1 sequence (Q99720 whole entry): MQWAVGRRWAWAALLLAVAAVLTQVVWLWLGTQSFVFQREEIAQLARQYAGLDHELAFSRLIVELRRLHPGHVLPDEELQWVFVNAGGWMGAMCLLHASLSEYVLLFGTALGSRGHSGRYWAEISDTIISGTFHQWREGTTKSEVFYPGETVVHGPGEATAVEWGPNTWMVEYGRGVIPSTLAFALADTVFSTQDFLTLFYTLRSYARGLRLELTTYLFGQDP

Ki [nM] | Compound
7.1 | c1ccc(OC[C@@H]2CC[C@@H]2CN2CCCC2)cc1 [Example 1, 1-(((1S,2R)-2-(Phenoxymethyl)cyclobutyl)methyl)pyrrolidine]
2.8 | CC1CCN(C[C@H]2CC[C@H]2COc2ccccc2)CC1 [Example 3, 4-Methyl-1-(((1S,2R)-2-(phenoxymethyl)cyclobutyl)methyl)piperidine]
16.5 | Clc1ccc(-n2ccc(OC[C@@H]3CC[C@@H]3CN3CCCC3)n2)cc1Cl [Example 13, 1-(3,4-Dichlorophenyl)-3-(((1R,2S)-2-(pyrrolidin-1-ylmethyl)cyclobutyl)methoxy)-1H-pyrazole]
50.3 | Cc1cc(OC[C@@H]2CC[C@@H]2CN2CCCC2)nn1-c1ccc(Cl)c(Cl)c1 [Example 15, 1-(3,4-Dichlorophenyl)-5-methyl-3-(((1R,2S)-2-(pyrrolidin-1-ylmethyl)cyclobutyl)methoxy)-1H-pyrazole]
178 | Cc1cc(OC[C@@H]2CC[C@@H]2CN2CCOCC2)nn1-c1ccc(Cl)c(Cl)c1 [Example 16, 4-(((1S,2R)-2-(((1-(3,4-Dichlorophenyl)-5-methyl-1H-pyrazol-3-yl)oxy)methyl)cyclobutyl)methyl)morpholine]
33.9 | c1ccc(OC[C@@H]2CC[C@@H]2CN2CCOCC2)cc1 [Example 17, 4-(((1S,2R)-2-(Phenoxymethyl)cyclobutyl)methyl)morpholine hydrochloride]
2.3 | Clc1ccc(OC[C@@H]2CC[C@@H]2CN2CCCC2)cc1Cl [Example 18, 1-(((1S,2R)-2-((3,4-Dichlorophenoxy)methyl)cyclobutyl)methyl)pyrrolidine hydrochloride]
3.7 | Clc1ccc(OC[C@@H]2CC[C@@H]2CN2CCOCC2)cc1Cl [Example 19, 4-(((1S,2R)-2-((3,4-Dichlorophenoxy)methyl)cyclobutyl)methyl)morpholine hydrochloride]
4.8 | CC1CCN(C[C@H]2CC[C@H]2COc2ccc(Cl)c(Cl)c2)CC1 [Example 20, 1-(((1S,2R)-2-((3,4-Dichlorophenoxy)methyl)cyclobutyl)methyl)-4-methylpiperidine hydrochloride]
19.1 | Cn1nc(OC[C@@H]2CC[C@@H]2CN2CCCC2)cc1C(F)(F)F [Example 21, 1-Methyl-3-(((1R,2S)-2-(pyrrolidin-1-ylmethyl)cyclobutyl)methoxy)-5-(trifluoromethyl)-1H-pyrazole hydrochloride]
5.6 | Cn1nc(OC[C@@H]2CC[C@@H]2CN2CCOCC2)cc1C(F)(F)F [Example 22, 4-(((1S,2R)-2-(((1-Methyl-5-(trifluoromethyl)-1H-pyrazol-3-yl)oxy)methyl)cyclobutyl)methyl)morpholine hydrochloride]
30.1 | Cn1nc(C(F)(F)F)cc1OC[C@@H]1CC[C@@H]1CN1CCCC1 [Example 23, 1-Methyl-5-(((1R,2S)-2-(pyrrolidin-1-ylmethyl)cyclobutyl)methoxy)-3-(trifluoromethyl)-1H-pyrazole hydrochloride]
20.4 | Clc1ccc(-n2ccc(OC[C@@H]3CC[C@@H]3CN3CCCC3)n2)cc1Cl [Example 25, 1-(3,4-Dichlorophenyl)-3-(((1R,2S)-2-(pyrrolidin-1-ylmethyl)cyclobutyl)methoxy)-1H-pyrazole hydrochloride]
13.4 | Clc1ccc(-n2ccc(OC[C@@H]3CC[C@@H]3CN3CCOCC3)n2)cc1Cl [Example 26, 4-(((1S,2R)-2-(((1-(3,4-Dichlorophenyl)-1H-pyrazol-3-yl)oxy)methyl)cyclobutyl)methyl)morpholine hydrochloride]
72.5 | Cc1cc(OC[C@@H]2CC[C@@H]2CN2CCCC2)nn1-c1ccc(Cl)c(Cl)c1 [Example 27, 1-(3,4-Dichlorophenyl)-5-methyl-3-(((1R,2S)-2-(pyrrolidin-1-ylmethyl)cyclobutyl)methoxy)-1H-pyrazole hydrochloride]
104 | Clc1ccc(-n2ccc(OC[C@@H]3CC[C@H]3CN3CCCC3)n2)cc1Cl [Example 28]
113 | Cc1cc(OC[C@@H]2CC[C@H]2CN2CCCC2)nn1-c1ccc(Cl)c(Cl)c1 [Example 29, 1-(3,4-Dichlorophenyl)-5-methyl-3-(((1R,2R)-2-(pyrrolidin-1-ylmethyl)cyclobutyl)methoxy)-1H-pyrazole]
578 | Cc1cc(OC[C@@H]2CC[C@H]2CN2CCOCC2)nn1-c1ccc(Cl)c(Cl)c1 [Example 30, 4-(((1R,2R)-2-(((1-(3,4-Dichlorophenyl)-5-methyl-1H-pyrazol-3-yl)oxy)methyl)cyclobutyl)methyl)morpholine]
17.2 | Cn1nc(OC[C@@H]2CC[C@H]2CN2CCCC2)cc1C(F)(F)F [Example 32, 1-Methyl-3-(((1R,2R)-2-(pyrrolidin-1-ylmethyl)cyclobutyl)methoxy)-5-(trifluoromethyl)-1H-pyrazole hydrochloride]
28.3 | Cn1nc(OC[C@H]2CC[C@H]2CN2CCCC2)cc1C(F)(F)F [Example 34, 1-Methyl-3-(((1S,2R)-2-(pyrrolidin-1-ylmethyl)cyclobutyl)methoxy)-5-(trifluoromethyl)-1H-pyrazole hydrochloride]
465 | Cc1cc(OC[C@H]2CC[C@@H]2CN2CCOCC2)nn1-c1ccc(Cl)c(Cl)c1 [Example 36, 4-(((1S,2S)-2-(((1-(3,4-Dichlorophenyl)-5-methyl-1H-pyrazol-3-yl)oxy)methyl)cyclobutyl)methyl)morpholine]
75.8 | Cn1nc(OC[C@H]2CC[C@@H]2CN2CCCC2)cc1C(F)(F)F [Example 38, 1-Methyl-3-(((1S,2S)-2-(pyrrolidin-1-ylmethyl)cyclobutyl)methoxy)-5-(trifluoromethyl)-1H-pyrazole hydrochloride]
39.9 | CCN(CC)C[C@H]1CC[C@@H]1COc1ccccc1 [Example 39, N,N-Diethyl-N-(((1S,2S)-2-(phenoxymethyl)cyclobutyl)methyl)ethanamine hydrochloride]
